Test results taken from article PMC10134273 (Cancer Medicine, 2023).
Read-outs that look alike come from different tables or passages of the source.

Experiments:
[1] = Phase 1 plasma pharmacokinetics of EVER4010001; type: in vivo, human
Text: After a screening period of up to 28 days, eligible patients received treatment according to a standard “3+3” dose escalation design. […] Treatment continued until unacceptable toxicity, progressive disease, and/or at the discretion of the Investigator or patient's withdrawal of consent.

[2] = tested on: triple positive HCC tumors; conditions: cited from earlier work
[3] = Cycle 1, Day 1, 40 mg BID (N=3) + pembrolizumab
[4] = Cycle 1, Day 1, 60 mg BID (N=3) + pembrolizumab
[5] = Cycle 1, Day 1, 80 mg BID (N=6) + pembrolizumab
[6] = Cycle 1, Day 1, 100 mg BID (N=7) + pembrolizumab
[7] = Cycle 1, Day 8, 40 mg BID (N=3) + pembrolizumab
[8] = Cycle 1, Day 8, 60 mg BID (N=3) + pembrolizumab
[9] = Cycle 1, Day 8, 80 mg BID (N=6) + pembrolizumab
[10] = Cycle 1, Day 8, 100 mg BID (N=7) + pembrolizumab

COCCNc1cc(NC(=O)N2CCCc3cc(CN4CCN(C)CC4=O)c(C=O)nc32)ncc1C#N [EVER4010001, roblitinib]
Geometric mean AUC0–t (geometric CV%) [1, 3]: 2363.64 (9.59) Hour·ng/ml
Mean t1/2 (SD) [1, 3]: 4.92 (0.16) Hour
Median tmax (Min, Max) [1, 3]: 0.550 (0.52, 1.05) Hour
Geometric mean AUC0–t (geometric CV%) [1, 4]: 4464.03 (37.96) Hour·ng/ml
Mean t1/2 (SD) [1, 4]: 4.00 (0.36) Hour
Median tmax (Min, Max) [1, 4]: 0.970 (0.93, 1.05) Hour
Geometric mean AUC0–t (geometric CV%) [1, 5]: 3774.38 (14.53) Hour·ng/ml
Mean t1/2 (SD) [1, 5]: 4.64 (1.44) Hour
Median tmax (Min, Max) [1, 5]: 1.030 (0.23, 2.00) Hour
Geometric mean AUC0–t (geometric CV%) [1, 6]: 5459.69 (8.34) Hour·ng/ml
Mean t1/2 (SD) [1, 6]: 4.22 (0.69) Hour
Median tmax (Min, Max) [1, 6]: 1.000 (0.52, 2.05) Hour
Geometric mean AUC0–t (geometric CV%) [1, 7]: 2084.60 (35.99) Hour·ng/ml
Mean Rac, drug accumulation ratio (SD) [1, 7]: 1.24 (0.25)
Mean t1/2 (SD) [1, 7]: 4.90 (2.59) Hour
Median tmax (Min, Max) [1, 7]: 1.030 (0.57, 2.00) Hour
Geometric mean AUC0–t (geometric CV%) [1, 8]: 3212.66 (27.61) Hour·ng/ml
Mean Rac, drug accumulation ratio (SD) [1, 8]: 1.31 (0.11)
Mean t1/2 (SD) [1, 8]: 5.78 (1.12) Hour
Median tmax (Min, Max) [1, 8]: 0.970 (0.93, 1.07) Hour
Geometric mean AUC0–t (geometric CV%) [1, 9]: 4284.35 (25.05) Hour·ng/ml
Mean Rac, drug accumulation ratio (SD) [1, 9]: 1.16 (0.08)
Mean t1/2 (SD) [1, 9]: 4.12 (0.90) Hour
Median tmax (Min, Max) [1, 9]: 0.990 (0.25, 1.05) Hour
Geometric mean AUC0–t (geometric CV%) [1, 10]: 6214.09 (24.13) Hour·ng/ml
Mean Rac, drug accumulation ratio (SD) [1, 10]: 1.23 (0.05)
Mean t1/2 (SD) [1, 10]: 4.97 (0.55) Hour
Median tmax (Min, Max) [1, 10]: 0.970 (0.50, 2.97) Hour
accumulation ratio (Rac) ([1]; Cycle 1 Day 8 vs Cycle 1 Day 1): around 1
steady state reached ([1]; after repeated BID dosing, based on T1/2): before Cycle 1 Day 8
Cmax ([1]; human, plasma, oral, Cycle 1, Day 1, 40 mg BID (N=3) + pembrolizumab, read-out: Geometric mean Cmax (geometric CV%)): 560 ng/mL
Cmax ([1]; human, plasma, oral, Cycle 1, Day 1, 60 mg BID (N=3) + pembrolizumab, read-out: Geometric mean Cmax (geometric CV%)): 958 ng/mL
Cmax ([1]; human, plasma, oral, Cycle 1, Day 1, 80 mg BID (N=6) + pembrolizumab, read-out: Geometric mean Cmax (geometric CV%)): 897 ng/mL
Cmax ([1]; human, plasma, oral, Cycle 1, Day 1, 100 mg BID (N=7) + pembrolizumab, read-out: Geometric mean Cmax (geometric CV%)): 1340 ng/mL
Cmax ([1]; human, plasma, oral, Cycle 1, Day 8, 40 mg BID (N=3) + pembrolizumab, read-out: Geometric mean Cmax (geometric CV%)): 427 ng/mL
Cmax ([1]; human, plasma, oral, Cycle 1, Day 8, 60 mg BID (N=3) + pembrolizumab, read-out: Geometric mean Cmax (geometric CV%)): 749 ng/mL
Cmax ([1]; human, plasma, oral, Cycle 1, Day 8, 80 mg BID (N=6) + pembrolizumab, read-out: Geometric mean Cmax (geometric CV%)): 991 ng/mL
Cmax ([1]; human, plasma, oral, Cycle 1, Day 8, 100 mg BID (N=7) + pembrolizumab, read-out: Geometric mean Cmax (geometric CV%)): 1330 ng/mL
AUC(0-t) ([1]; human, plasma, oral, Cycle 1 Day 1, range across dose levels, read-out: geometric mean AUC0–t): 2360 to 5460 ng·h/mL
Cmax ([1]; human, plasma, oral, Cycle 1 Day 1, range across dose levels, read-out: geometric mean Cmax): 560 to 1340 ng/mL
AUC(0-t) ([1]; human, plasma, oral, range across 40-100 mg BID dose levels (abstract), read-out: AUC0–t): 2370 to 5480 ng·h/mL
Cmax ([1]; human, plasma, oral, range across 40-100 mg BID dose levels (abstract), read-out: maximum observed concentration (Cmax)): 606 to 1350 ng/mL
half-life ([1]; human, plasma, oral, range across 40-100 mg BID dose levels, read-out: Mean plasma terminal half-life (T1/2)): 4 to 4.92 h
Tmax ([1]; human, plasma, oral, range across 40-100 mg BID dose levels, read-out: Median time to peak concentration (Tmax)): 0.55 to 1.03 h
antitumor effect in preclinical models [2]: induced regression/stasis
